Test results published in US10815222B2, “Compounds for use in the treatment of kinetoplastid infection” (C.N.C.C.S. S.c.a.r.l. COLLEZIONE NAZIONALE DEI COMPOSTI …, priority 2016, dated 2020).

Tested on: Bloodstream form of Trypanosoma brucei, strain Lister 427
Assay: Trypanosoma brucei growth inhibition assay (CellTiter-Glo, 24 h)
Format: cell-based
Conditions: Trypanosoma brucei; T. Brucei Growth Inibition Assay, class symbols; read-out: T. Brucei GI EC50
Protocol: Bloodstream form of Trypanosoma brucei, strain Lister 427 (provided by Prof. Miguel Navarro, Instituto de Parasitologia y Biomedicina “Lopez-Neyra” Avda. Conocimiento S/N Parque Tecnologico Ciencias de la Salud—Spain; ref. Navarro M. and Cross G. A. M. Molecular and Cellular Biology, 1996, Vol. 16, No. 7, pp. 3615-3625) were grown in IMDM Iscove's Modified Dulbecco's Medium (SIGMA #17633) supplemented with: 3.024 g/l sodium bicarbonate, hypoxanthine 1 mM, thymidine 0.16 mM, bathocuprione sulfonic acid 0.05 mM, cysteine 1.5 mM, ß-mercaptoethanol […] and 10% foetal bovine serum (heat-inactivated at 56° C. for 30 min). Parasites were grown at 37° C. in flasks with vented caps in a 5% CO2 incubator to a maximum cell density of about 2×10^6/ml and diluted every two-three days.
The compounds of the invention were dissolved in DMSO and transferred to assay plates by acoustic droplet ejection (ATS-100, EDC Biosystems, USA) in order to obtain an appropriate concentration and to keep the concentration of DMSO below or equal to 0.25% in the final assay volume of 30 μL. 1500 parasites resuspended in 30 μL of culture medium were then transferred to each well of a 384-well plate.
After an incubation period of 24 hours at 37° C., each well is added 15 μl of CellTiter-Glo® Reagent (Promega) and incubated at room temperature. 5-10 min post incubation, the plate is read using a luminometer (ViewLux®). A known inhibitor of the growth of T. brucei was used as the reference positive control.

COc1nc2ccccc2cc1-c1cnc(C2CN(CC3CCOC3)CCN2C(=O)Cn2c(=O)ncc3ccccc32)[nH]1 (centres unmarked)
EC50: 1010 to 5000 nM

COc1nc2ccccc2cc1-c1cnc(C2CN(CC3CCOC3)CCN2C(=O)Cn2ccc3cc(C#N)ccc32)[nH]1 (centres unmarked)
EC50: 510 to 1000 nM

COc1nc2ccccc2cc1-c1cnc(C2CN(CC3CCOC3)CCN2C(=O)Cn2ccnc2-c2ccccc2)[nH]1 (centres unmarked)
EC50: 1010 to 5000 nM

COc1nc2ccccc2cc1-c1cnc(C2CN(CC3CCOC3)CCN2C(=O)Cc2ccc(-c3nccnc3C)cc2)[nH]1 (centres unmarked)
EC50: 1010 to 5000 nM

COc1nc2ccccc2cc1-c1cnc(C2CNCCN2C(=O)Cn2c(C)nc3ccccc32)[nH]1 (centres unmarked)
EC50: 1010 to 5000 nM

COc1nc2ccccc2cc1-c1cnc(C2CN(CC3CCOC3)CCN2C(=O)Cc2c[nH]c3ccncc23)[nH]1 (centres unmarked)
EC50: 1010 to 5000 nM

COc1nc2ccccc2cc1-c1cnc(C2CN(CC3CCOC3)CCN2C(=O)Cc2nc(-c3ccccc3)oc2C)[nH]1 (centres unmarked)
EC50: 1010 to 5000 nM

COc1nc2ccccc2cc1-c1cnc(C2CN(CC3CCOC3)CCN2C(=O)Cc2c(C)[nH]c3ccccc23)[nH]1 (centres unmarked)
EC50: 100 to 500 nM

Cc1[nH]c2ccc(F)cc2c1CC(=O)N1CCN(CC2CCOC2)CC1c1ncc(-c2ccc(-n3cccn3)cc2)[nH]1 (centres unmarked)
EC50: 1010 to 5000 nM

COc1nc2ccccc2cc1-c1cnc(C2CS(=O)(=O)CCN2C(=O)Cn2c(C)nc3ccccc32)[nH]1 (centres unmarked)
EC50: 1010 to 5000 nM

COc1nc2ccccc2cc1-c1cnc(C2COCCN2C(=O)Cn2c(C)nc3ccccc32)[nH]1 (centres unmarked)
EC50: 1010 to 5000 nM

COc1nc2ccccc2cc1-c1cnc(C2CN(C3CCS(=O)(=O)CC3)CCN2C(=O)Cc2c(C)[nH]c3ccc(F)cc23)[nH]1 (centres unmarked)
EC50: 100 to 500 nM

COc1nc2ccccc2cc1-c1cnc(C2CN(CC3CCOC3)CCN2C(=O)Cc2ccc(N3CCNC3=O)cc2)[nH]1 (centres unmarked)
EC50: 1010 to 5000 nM

CCC(=O)CCC(=O)N1CCN(C(=O)Cc2c(C)[nH]c3ccc(OC)cc23)C(c2ncc(-c3ccc4ccccc4c3)[nH]2)C1 (centres unmarked)
EC50: 100 to 500 nM

COc1nc2ccccc2cc1-c1cnc(C2CN(CC3CCCC3)CCN2C(=O)Cc2c(C)[nH]c3ccc(F)cc23)[nH]1 (centres unmarked)
EC50: 100 to 500 nM

COc1nc2ccccc2cc1-c1cnc(C2CN(CC3CC3)CCN2C(=O)Cc2c(C)[nH]c3ccc(F)cc23)[nH]1 (centres unmarked)
EC50: 100 to 500 nM

COc1nc2ccccc2cc1-c1cnc(C2CN(Cc3ccccc3)CCN2C(=O)Cc2c(C)[nH]c3ccc(F)cc23)[nH]1 (centres unmarked)
EC50: 100 to 500 nM

COc1nc2ccccc2cc1-c1cnc(C2CN(C3CCC3)CCN2C(=O)Cc2c(C)[nH]c3ccc(F)cc23)[nH]1 (centres unmarked)
EC50: 100 to 500 nM

COc1nc2ccccc2cc1-c1cnc([C@@H]2CN(CC3CCOC3)CCN2C(=O)Cn2cc(C(F)(F)F)nc2C)[nH]1 (some centres unmarked)
EC50: 1010 to 5000 nM

COc1nc2ccccc2cc1-c1cnc([C@@H]2CN(CC3CCOC3)CCN2C(=O)C(C)(C)n2c(C(F)(F)F)nc3ccccc32)[nH]1 (some centres unmarked)
EC50: 1010 to 5000 nM

COc1nc2ccccc2cc1-c1cnc([C@@H]2CN(CC3CCOC3)CCN2C(=O)Cn2c(C(F)(F)F)nc3ncccc32)[nH]1 (some centres unmarked)
EC50: 1010 to 5000 nM

COc1nc2ccccc2cc1-c1cnc([C@@H]2CN(CC3CCOC3)CCN2C(=O)Cn2c(C)nc3cc(C(F)(F)F)ccc32)[nH]1 (some centres unmarked)
EC50: 100 to 500 nM

COc1nc2ccccc2cc1-c1cnc([C@@H]2CN(CC3CCOC3)CCN2C(=O)Cn2c(CC(F)(F)F)nc3ccccc32)[nH]1 (some centres unmarked)
EC50: 100 to 500 nM

COc1nc2ccccc2cc1-c1cnc(C2CN(CC3CCOC3)CCN2C(=O)Cn2nnc3ccccc32)[nH]1 (centres unmarked)
EC50: 510 to 1000 nM

COc1nc2ccccc2cc1-c1cnc(C2COCCN2C(=O)Cn2nnc3ccccc32)[nH]1 (centres unmarked)
EC50: 1010 to 5000 nM

COc1nc2ccccc2cc1-c1cnc(C2CN(CC3CCOC3)CCN2C(=O)Cn2nc(C)c3ccccc3c2=O)[nH]1 (centres unmarked)
EC50: 510 to 1000 nM

COc1nc2ccccc2cc1-c1cnc(C2CN(CC3CCOC3)CCN2C(=O)CN2C(=O)c3ccccc3C2=O)[nH]1 (centres unmarked)
EC50: 510 to 1000 nM

COc1nc2ccccc2cc1-c1cnc(C2CS(=O)(=O)CCN2C(=O)Cn2nc(C)c3ccccc3c2=O)[nH]1 (centres unmarked)
EC50: 1010 to 5000 nM

COc1nc2ccccc2cc1-c1cnc(C2COCCN2C(=O)Cn2nc(C)c3ccccc3c2=O)[nH]1 (centres unmarked)
EC50: 1010 to 5000 nM

COc1nc2ccccc2cc1-c1cnc([C@@H]2CN(CC3CCOC3)CCN2C(=O)Cn2c(C3CCC3)nc3ccccc32)[nH]1 (some centres unmarked)
EC50: 100 to 500 nM

COc1nc2ccccc2cc1-c1cnc(C2CN(CC3CCOC3)CCN2C(=O)Cn2c(C3CC3)nc3ccccc32)[nH]1 (centres unmarked)
EC50: 100 to 500 nM

COc1nc2ccccc2cc1-c1cnc(C2CN(CC3CCOC3)CCN2C(=O)Cn2nc3ccccc3n2)[nH]1 (centres unmarked)
EC50: 1010 to 5000 nM

COc1nc2ccccc2cc1-c1cnc(C2CN(CC3CCOC3)CCN2C(=O)Cn2c(C)nc3cc(F)ccc32)[nH]1 (centres unmarked)
EC50: 100 to 500 nM

COc1nc2ccccc2cc1-c1cnc(C2CN(C3CCN(C)CC3)CCN2C(=O)Cc2c(C)[nH]c3ccc(F)cc23)[nH]1 (centres unmarked)
EC50: 510 to 1000 nM

COc1nc2ccccc2cc1-c1cnc(C2CN(Cc3cn(C)nn3)CCN2C(=O)Cc2c(C)[nH]c3ccc(F)cc23)[nH]1 (centres unmarked)
EC50: 100 to 500 nM

COc1nc2ccccc2cc1-c1cnc(C2CN(Cc3cccnc3)CCN2C(=O)Cc2c(C)[nH]c3ccc(F)cc23)[nH]1 (centres unmarked)
EC50: 100 to 500 nM

COc1nc2ccccc2cc1-c1cnc(C2CN(Cc3cocn3)CCN2C(=O)Cc2c(C)[nH]c3ccc(F)cc23)[nH]1 (centres unmarked)
EC50: 100 to 500 nM

COc1nc2ccccc2cc1-c1cnc(C2CN(C(=O)C3CCN(C)CC3)CCN2C(=O)Cc2c(C)[nH]c3ccc(F)cc23)[nH]1 (centres unmarked)
EC50: 1010 to 5000 nM

COc1nc2ccccc2cc1-c1cnc(C2COCCN2C(=O)Cc2c(C)[nH]c3ccc(F)cc23)[nH]1 (centres unmarked)
EC50: 510 to 1000 nM

Cc1[nH]c2ccc(F)cc2c1CC(=O)N1CCS(=O)(=O)CC1c1ncc(-c2ccc3ccccc3c2)[nH]1 (centres unmarked)
EC50: 100 to 500 nM

COc1nc2ccccc2cc1-c1cnc(C2CN(C(=O)c3cnn(C(C)C)c3)CCN2C(=O)Cc2c(C)[nH]c3ccc(F)cc23)[nH]1 (centres unmarked)
EC50: 1010 to 5000 nM

COc1ncc(CN2CCN(C(=O)Cc3c(C)[nH]c4ccc(F)cc34)C(c3ncc(-c4cc5ccccc5nc4OC)[nH]3)C2)cn1 (centres unmarked)
EC50: 100 to 500 nM

COc1nc2ccccc2cc1-c1cnc(C2CN(Cc3ccoc3)CCN2C(=O)Cc2c(C)[nH]c3ccc(F)cc23)[nH]1 (centres unmarked)
EC50: 100 to 500 nM

COc1nc2ccccc2cc1-c1cnc(C2CN(CC(C)C)CCN2C(=O)Cc2c(C)[nH]c3ccc(F)cc23)[nH]1 (centres unmarked)
EC50: 100 to 500 nM

COc1ccc2[nH]c(C)c(CC(=O)N3CCNCC3c3ncc(-c4cc5ccccc5nc4OC)[nH]3)c2c1 (centres unmarked)
EC50: 510 to 1000 nM

COc1nc2ccccc2cc1-c1cnc(C2CN(CC3CCOC3)CCN2C(=O)Cn2c(C)nc3cc(F)c(F)cc32)[nH]1 (centres unmarked)
EC50: 100 to 500 nM

COc1nc2ccccc2cc1-c1cnc(C2CN(CC3CCOC3)CCN2C(=O)Cn2c(C)nc3ccc(F)cc32)[nH]1 (centres unmarked)
EC50: 100 to 500 nM

COc1nc2ccccc2cc1-c1cnc(C2CN(CC3CCOC3)CCN2C(=O)Cc2noc3ccccc23)[nH]1 (centres unmarked)
EC50: 510 to 1000 nM

COc1nc2ccccc2cc1-c1cnc(C2CN(CC3CCOC3)CCN2C(=O)Cc2cnc3ccccn23)[nH]1 (centres unmarked)
EC50: 1010 to 5000 nM

COc1cccc(CCC(=O)N2CCN(CC3CCOC3)CC2c2ncc(-c3cc4ccccc4nc3OC)[nH]2)c1 (centres unmarked)
EC50: 1010 to 5000 nM

COc1nc2ccccc2cc1-c1cnc(C2CN(Cc3cc[n+]([O-])cc3)CCN2C(=O)Cc2c(C)[nH]c3ccc(F)cc23)[nH]1 (centres unmarked)
EC50: 1010 to 5000 nM

COc1ccc2c(c1)C(CC(=O)N1CCN(CC3CCOC3)CC1c1ncc(-c3cc4ccccc4nc3OC)[nH]1)C(=O)N2 (centres unmarked)
EC50: 1010 to 5000 nM

CCC(=O)CCCN1CCN(C(=O)Cc2ccccc2)C(c2ncc(-c3ccc4ccccc4c3)[nH]2)C1 (centres unmarked)
EC50: 1010 to 5000 nM

CCC(=O)CCCN1CCN(C(=O)Cn2ccnn2)C(c2ncc(-c3ccc4ccccc4c3)[nH]2)C1 (centres unmarked)
EC50: 1010 to 5000 nM

COc1nc2ccccc2cc1-c1cnc(C2CN(CC3CCOC3)CCN2C(=O)c2cc(C)n(Cc3ccccc3)n2)[nH]1 (centres unmarked)
EC50: 1010 to 5000 nM

COc1nc2ccccc2cc1-c1cnc(C2CN(CC3CCOC3)CCN2C(=O)c2c(-c3ccccc3)noc2C)[nH]1 (centres unmarked)
EC50: 1010 to 5000 nM

COc1nc2ccccc2cc1-c1cnc(C2CN(CC3CCOC3)CCN2C(=O)c2ccc(C3CCCO3)s2)[nH]1 (centres unmarked)
EC50: 1010 to 5000 nM

COc1nc2ccccc2cc1-c1cnc(C2CN(CC3CCOC3)CCN2C(=O)c2ccnc3ccccc23)[nH]1 (centres unmarked)
EC50: 1010 to 5000 nM

COc1nc2ccccc2cc1-c1cnc(C2CN(CC3CCOC3)CCN2C(=O)c2sc(-c3cnccn3)nc2C)[nH]1 (centres unmarked)
EC50: 1010 to 5000 nM

COc1nc2ccccc2cc1-c1cnc(C2CN(CC3CCOC3)CCN2C(=O)c2cnc3ccccc3c2)[nH]1 (centres unmarked)
EC50: 1010 to 5000 nM

COc1nc2ccccc2cc1-c1cnc(C2CN(CC3CCOC3)CCN2C(=O)c2ccc3ncccc3c2)[nH]1 (centres unmarked)
EC50: 1010 to 5000 nM

COc1ccc(-c2ccc(C(=O)N3CCN(CC4CCOC4)CC3c3ncc(-c4cc5ccccc5nc4OC)[nH]3)o2)cc1 (centres unmarked)
EC50: 1010 to 5000 nM

COc1nc2ccccc2cc1-c1cnc([C@@H]2CN(Cc3cnn(C)c3)CCN2C(=O)Cn2c(C(F)(F)F)nc3ccccc32)[nH]1
EC50: 100 to 500 nM

COc1nc2ccccc2cc1-c1cnc([C@@H]2CN(Cc3ccccc3F)CCN2C(=O)Cn2c(C(F)(F)F)nc3ccccc32)[nH]1
EC50: 100 to 500 nM

COc1nc2ccccc2cc1-c1cnc(C2CN(C(=O)OCc3ccccc3)CCN2C(=O)Cn2c(C)nc3ccccc32)[nH]1 (centres unmarked)
EC50: 1010 to 5000 nM

COc1nc2ccccc2cc1-c1cnc(C2CN(C(=O)OCc3ccccc3)CCN2C(=O)Cc2c(C)[nH]c3ccc(F)cc23)[nH]1 (centres unmarked)
EC50: 1010 to 5000 nM

COc1nc2ccccc2cc1-c1cnc(C2CN(CC3CCOC3)CCN2C(=O)c2nccc3ccccc23)[nH]1 (centres unmarked)
EC50: 1010 to 5000 nM

COc1ccc2[nH]c(C)c(CC(=O)N3CCN(C(=O)OC(C)(C)C)CC3c3ncc(-c4cc5ccccc5nc4OC)[nH]3)c2c1 (centres unmarked)
EC50: 100 to 500 nM
